From US8951527B2, “Radioprotectants targeting thrombospondin-1 and CD47” (The United States of America, as represented by the …, priority 2008, dated 2015)
“Also recorded” adds a separate entry of the source.

How the values were obtained:
[1] = test system: B16F10 melanoma tumors; assay: Syngeneic B16F10 melanoma tumor growth after irradiation; format: in vivo, mouse; settings: B16F10 in C57BL/6 mice
Method: FIG. 19. CD47 suppression enhances re-growth delay in irradiated syngeneic B16 melanoma and squamous cell carcinoma tumors but increases radioresistance of B16 cells in vitro. C57BL/6 mice were injected with 1×10^6 B16 mouse melanoma cells into their right hindlimbs. Five days later, the mice were randomized into 4 groups (12 mice in each group) where they either received injections of CD47 morpholino (10 μM) in sterile PBS, PBS, or no injection. The two groups receiving injections were then subjected to radiation (10 Gy) to the effected hindlimb 48 hours later. The other two groups served as controls and consisted of tumor alone or tumor subjected to only the morpholino. Tumors were followed post-radiation for 30 days, measuring their volume every 6 days (FIG. 19A). Results are presented as the mean±SD of 12 mice in each treatment group and are representative of 3 independent studies. These same experimental treatment conditions were tested using another syngeneic tumor cell line (SCC VII) in C3H mice and followed for 15 days where similar results were found after injecting 1.5×10^5 cells (FIG. 19B). Results are presented as the mean±SD of 10 mice (C3II) in each treatment group and are representative of 3 independent studies. B16 mouse melanoma cells were plated on 96-well plates in standard growth medium. Cells were treated with peptide 7N3 or CD47 morpholino and received a radiation dose of 10 Gy (FIG. 19C; *p<0.05, #p<0.01). Cell (mitochondrial) viability was measured 48 hours post radiation using the MTT assay.
Tumor Establishment and Irradiation. C57 B16 mice were injected in the right hindlimb with 1×10^6 B16F10 melanoma cells, and tumors were allowed to establish for 1 week. After tumor incorporation, the hind limbs were treated with either the CD47 morpholino or sterile phosphate buffered saline (PBS). Forty-eight hours later, all mice were subjected to right hind limb irradiation (10 Gy). The mice were observed and tumor size determined twice a week by the same individual until lesion size necessitated animal euthanasia. […]

[2] = test system: HUVEC; assay: HUVEC cell viability after irradiation (MTT / CellTiter 96); format: cell-based, human
Method: FIG. 11. Radioprotective activities of TSP1 and CD47 antibodies, a CD47 binding peptide from TSP1, and a CD47 morpholino. HUVEC were plated on 96-well plates in standard growth medium. Cells were treated with TSP1 (FIG. 11A) or CD47 (FIG. 11B) monoclonal antibodies (clone A6.1 or B6H12, respectively) and received the indicated doses of radiation 24 hours after addition of the antibodies. Cell (mitochondrial) viability was measured 48 hours post irradiation using an MTT assay. Cells were treated using peptide 7N3 (FIG. 11C) and control peptide 604 (FIG. 11D), subjected to the same experimental conditions, and assayed via MTT. […] Experiments were repeated 3 times and results presented as the mean±SD.
FIG. 12. Peptides 7N3 and C6d are radioprotective to HUVEC in culture. Human umbilical vein endothelial cells (HUVEC) grown in EGM medium in 96-well plates were treated with graded doses of a peptide agent, as indicated. One hour later, cells were exposed to a single dose of gamma radiation (0, 10, 20, 30, and 40 Gray) and allowed to incubate 72 hours at 37° C. Cell viability was determined with the CellTiter 96 AQueous One Solution Cell Proliferation Assay.
Cell Viability Assay. HUVEC were plated at a density of 5000 cells/well in 96 well plates (Nunc), and were treated 24 hours later with either the indicated doses of a CD47 antibody (B6H12), a TSP1 antibody (A6.1), the CD47-binding peptide 7N3, or control peptide 604. One hour later the cells were exposed to a single dose of gamma radiation (0, 10, 20, 30, and 40 Gy) and allowed to incubate another 72 hours at 37° C. Experiments done with B16E10 melanoma cells in Example 4 were done in a similar manner treating either 1 hour prior to a single dose of radiation (10 Gy) with peptide 7N3 or 48 hours prior with CD47 morpholino. Cell viability was determined using the CellTiter 96 Aqueous One Solution cell proliferation assay (Promega, Madison, Wis.) as per the manufacturer's instructions and absorbance at 490 nm was determined using an MR580 Microelisa AutoReader (Dynatech, Alexandria, Va.). The same assay was performed on HUVEC using either the CD47 or CD36 morpholino, but 48 hours were allowed to pass prior to radiation (0 or 40 Gy) to allow for suppression of the target proteins. Similarly, control experiments were performed using the nitric oxide synthase (NOS) inhibitor L-NAME, a membrane permeable cGMP analogue, 8-Bromo cGMP, or the NO donor DETA/NO.
In an additional experiment to test the effect of radioprotective peptides, human umbilical vein endothelial cells (HUVEC) grown in EGM medium in 96-well plates were treated with graded doses of a peptide agent, as indicated. One hour later, cells were exposed to a single dose of gamma radiation (0, 10, 20, 30, and 40 Gray) and allowed to incubate 72 hours at 37° C. Cell viability was determined with the CellTiter 96 AQueous One Solution Cell Proliferation Assay.

[3] = test system: B16F10 melanoma cells; assay: B16F10 melanoma cell viability after irradiation in vitro; format: cell-based, mouse; settings: 7N3 1 hour or morpholino 48 hours before 10 Gy, versus untreated cells
Method: FIG. 19. CD47 suppression enhances re-growth delay in irradiated syngeneic B16 melanoma and squamous cell carcinoma tumors but increases radioresistance of B16 cells in vitro. C57BL/6 mice were injected with 1×10^6 B16 mouse melanoma cells into their right hindlimbs. Five days later, the mice were randomized into 4 groups (12 mice in each group) where they either received injections of CD47 morpholino (10 μM) in sterile PBS, PBS, or no injection. The two groups receiving injections were then subjected to radiation (10 Gy) to the effected hindlimb 48 hours later. The other two groups served as controls and consisted of tumor alone or tumor subjected to only the morpholino. Tumors were followed post-radiation for 30 days, measuring their volume every 6 days (FIG. 19A). […] Cell (mitochondrial) viability was measured 48 hours post radiation using the MTT assay.
Cell Viability Assay. […] Cell viability was determined using the CellTiter 96 Aqueous One Solution cell proliferation assay (Promega, Madison, Wis.) as per the manufacturer's instructions and absorbance at 490 nm was determined using an MR580 Microelisa AutoReader (Dynatech, Alexandria, Va.). […]
Irradiation of cells. […] The dose rate at 50 cm from the x-ray source was 242 cGy/minute, as determined by multiple thermo luminescent dosimeter readings.

“CGTCACAGGCAGGACCCACTGCCCA (all phosphorodiamidate morpholino (PMO)) [CD47 morpholino, CD47 targeting morpholino oligonucleotide]” was tested, and the “tumor ablation / re-growth delay with irradiation” value ([1]; morpholino 48 hours before 10 Gy) was “dramatically increased tumor ablation”, the “tumor growth without irradiation” value ([1]; morpholino alone) was “only slightly delayed tumor growth” and the “normal tissue injury in tumor-bearing irradiated limbs” value ([1]; morpholino then 10 Gy) was “minimal alopecia and no other morphologic or histologic evidence of tissue injury”. The “cell survival of irradiated HUVEC with L-NAME co-incubation” value ([2]; co-incubation of L-NAME and CD47 morpholino ± radiation (FIG. 22C)) was “enhancing cell survival”, the “cell viability post radiation after morpholino pretreatment” value ([2]; morpholino 48 hours before radiation (FIG. 11E, F)) was “granted protection against cell death; also recorded: resistant to radiation-driven cell death” and the “cell viability after 10 Gy” value [3] was “mild radioprotective effect”.
